In brackets after ≈: the same amount, converted by molar mass. Each block holds one compound with its values, some of them ahead of it.
Experiments:
[1] = from Tables 2, 3 and 4
Enterobacter cloacae = experiment: Minimum inhibitory concentration (MIC), microtitration dilution method of Heifetz et al.; assay type: cell-based; design: unit not given here; conditions: Table 2
Streptococcus faecium = experiment: as above; assay type: cell-based; conditions: Table 2
Procedure: (§1) The compounds of this invention display antibacterial activity when tested by the microtitration dilution method reported by Heifetz et al., Antimicr. Agents & Chemoth., 6. 124 (1974). Minimum inhibitory concentrations (MICs, in μg/ml) for but a few representative compounds according to this invention were determined by the above-mentioned method.

Staphylococcus aureus = experiment: as above; assay type: cell-based; conditions: Table 2
Procedure: as §1

Streptococcus faecalis = experiment: as above; assay type: cell-based
Procedure: as §1

Pseudomonas aeruginosa = experiment: as above; assay type: cell-based; conditions: Table 2
Procedure: as §1

Escherichia coli = experiment: as above; assay type: cell-based; conditions: Table 2
Procedure: as §1

Klebsiella oxytoca = experiment: as above; assay type: cell-based; conditions: Table 2
Procedure: as §1

Structure (SMILES): CC(C)(C)n1cc(C(=O)O)c(=O)c2cc(F)c(N3C[C@H]4C[C@@H]3CN4)nc21 [Example 30, 7-(1R,4R-2,5-diazabicyclo[2.2.1]heptan-2-yl)-1-(1,1-dimethylethyl)-1,4-dihydro-6-fluoro-4-oxo-1,8-naphthyridine-3-carboxylic acid]
- combination of anti-bacterial, toxicity, and water-solubility properties [1]: highly advantageous combination of the above mentioned properties

- MIC E. clo. (Enterobacter cloacae): 0.06
- MIC S. faeci. (Streptococcus faecium): 2.0 µg/mL (≈ 5.34 µM)
- MIC S. aur. (Staphylococcus aureus): 0.03 µg/mL (≈ 0.0801 µM)
- MIC S. faecal. (Streptococcus faecalis; Table 2, Streptococcus faecalis): 0.5 µg/mL (≈ 1.34 µM)
- MIC P. aer. (Pseudomonas aeruginosa): 1.0 µg/mL (≈ 2.67 µM)
- MIC E. coli (Escherichia coli): 0.13 µg/mL (≈ 0.347 µM)
- MIC K. oxyto. (Klebsiella oxytoca): 0.5 µg/mL (≈ 1.34 µM)
Structure (SMILES): CC(C)(C)n1cc(C(=O)O)c(=O)c2cc(F)c(N3C[C@@H]4CC[C@H]3CN4)nc21 [Example 23, 7-(1S,4S-2,5-diazabicyclo[2.2.2]octan-2-yl)-1-(1,1-dimethylethyl)-1,4-dihydro-6-fluoro-4-oxo-1,8-naphthyridine-3-carboxylic acid]

Structure (SMILES): O=C(O)c1cn(C2CC2)c2cc(N3CCNCC3)c(F)cc2c1=O [Cip., 1-cyclopropyl-6-fluoro-1,4-dihydro-7-(1-piperazinyl)-4-oxo-quinoline-3-carboxylic acid, reference compound]
- MIC (Streptococcus faecalis; Enterococcus faecalis, read-out: MIC S. faecal.): 0.5 µg/mL (≈ 1.51 µM)
